According to US9492471B2, “Methods of treating a disease or disorder associated with Bruton'S Tyrosine Kinase” (Celgene Avilomics Research, Inc., priority 2013, dated 2016):
Where two headings read alike, the source gives them in different places.

Columns and labels:
Assay in all cases: HotSpot kinase profiling
Type in all cases: biochemical
GSK3a = molecular target: T1, GSK3a (Homo sapiens, UniProt P49840)
T1 construct: purchased Reaction Biology Corp
Method in brief: (§1)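 Radiometric kinase assay with P81 filter capture; each kinase was added to fresh substrate plus cofactors in reaction buffer and incubated 2 h at room temperature. Unreacted phosphate was washed off with 0.1% phosphoric acid before detection; percent inhibition is relative to DMSO control, averaged over replicates.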

HIPK2 = molecular target: T2, HIPK2 (Homo sapiens, UniProt Q9H2X6)
T2 construct: purchased Reaction Biology Corp
Method in brief: as §1

PHKg1 = molecular target: T3, PHKg1 (Homo sapiens, UniProt Q16816)
T3 construct: purchased Reaction Biology Corp
Method in brief: as §1

JAK2 = molecular target: T4, JAK2 (Homo sapiens, UniProt O60674)
T4 construct: purchased Reaction Biology Corp
Method in brief: as §1

MEKK3 = molecular target: T5, MEKK3 (Homo sapiens, UniProt Q99759)
T5 construct: purchased Reaction Biology Corp
T5 sequence (Q99759 1-626): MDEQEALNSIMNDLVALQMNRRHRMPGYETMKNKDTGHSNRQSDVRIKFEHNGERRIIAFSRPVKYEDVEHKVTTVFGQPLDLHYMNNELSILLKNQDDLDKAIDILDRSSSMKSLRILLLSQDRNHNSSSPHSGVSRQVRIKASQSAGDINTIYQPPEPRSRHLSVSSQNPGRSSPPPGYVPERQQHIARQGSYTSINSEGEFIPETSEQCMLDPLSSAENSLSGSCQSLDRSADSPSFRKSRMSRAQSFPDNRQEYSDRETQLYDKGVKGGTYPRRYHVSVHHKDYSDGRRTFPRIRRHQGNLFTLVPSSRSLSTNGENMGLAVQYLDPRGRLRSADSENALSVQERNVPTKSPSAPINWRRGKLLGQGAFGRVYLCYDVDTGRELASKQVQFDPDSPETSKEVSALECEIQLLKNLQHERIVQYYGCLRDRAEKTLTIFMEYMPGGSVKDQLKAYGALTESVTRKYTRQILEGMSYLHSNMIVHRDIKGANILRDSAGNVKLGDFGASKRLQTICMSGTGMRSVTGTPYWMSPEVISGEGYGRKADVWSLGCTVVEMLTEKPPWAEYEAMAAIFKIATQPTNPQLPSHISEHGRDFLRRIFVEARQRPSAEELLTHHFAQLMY
Method in brief: as §1

CLK4 = molecular target: T6, CLK4 (Homo sapiens, UniProt Q9HAZ1)
T6 construct: purchased Reaction Biology Corp
Method in brief: as §1

CDK7/cyclin H = molecular target: T7, CDK7/cyclin H (Homo sapiens, UniProt P50613)
T7 construct: purchased Reaction Biology Corp
Method in brief: as §1

ABL1 = molecular target: T8, ABL1 (Homo sapiens, UniProt P00519)
T8 construct: purchased Reaction Biology Corp
Method in brief: as §1

MST3/STK24 = molecular target: T9, MST3/STK24 (Homo sapiens, UniProt Q9Y6E0)
T9 construct: purchased Reaction Biology Corp
Method in brief: as §1

SNARK/NUAK2 = molecular target: T10, SNARK/NUAK2 (Homo sapiens, UniProt Q9H093)
T10 construct: purchased Reaction Biology Corp
T10 sequence (Q9H093 1-628): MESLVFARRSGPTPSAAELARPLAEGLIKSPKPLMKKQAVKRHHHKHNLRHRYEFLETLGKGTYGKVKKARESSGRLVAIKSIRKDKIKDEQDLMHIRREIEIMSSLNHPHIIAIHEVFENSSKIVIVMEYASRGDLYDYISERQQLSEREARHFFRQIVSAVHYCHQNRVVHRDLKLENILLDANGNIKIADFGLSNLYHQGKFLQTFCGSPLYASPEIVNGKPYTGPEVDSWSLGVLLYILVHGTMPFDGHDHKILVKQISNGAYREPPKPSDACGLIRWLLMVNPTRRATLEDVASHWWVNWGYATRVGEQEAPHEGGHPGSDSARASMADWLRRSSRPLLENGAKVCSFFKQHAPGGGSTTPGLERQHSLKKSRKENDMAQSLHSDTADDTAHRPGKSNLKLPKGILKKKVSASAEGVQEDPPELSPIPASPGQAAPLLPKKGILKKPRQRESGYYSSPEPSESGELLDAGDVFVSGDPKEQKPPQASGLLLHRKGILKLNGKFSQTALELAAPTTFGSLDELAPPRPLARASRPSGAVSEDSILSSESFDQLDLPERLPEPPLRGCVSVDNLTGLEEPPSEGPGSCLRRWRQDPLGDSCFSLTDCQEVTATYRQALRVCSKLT
Method in brief: as §1

AKT2 = molecular target: T11, AKT2 (Homo sapiens, UniProt P31751)
T11 construct: purchased Reaction Biology Corp
Method in brief: as §1

[1] = read-out: % Enzyme Activity (relative to DMSO controls) Run 1
[2] = read-out: % Enzyme Activity (relative to DMSO controls) Run 2

T1 sequence (P49840 whole entry): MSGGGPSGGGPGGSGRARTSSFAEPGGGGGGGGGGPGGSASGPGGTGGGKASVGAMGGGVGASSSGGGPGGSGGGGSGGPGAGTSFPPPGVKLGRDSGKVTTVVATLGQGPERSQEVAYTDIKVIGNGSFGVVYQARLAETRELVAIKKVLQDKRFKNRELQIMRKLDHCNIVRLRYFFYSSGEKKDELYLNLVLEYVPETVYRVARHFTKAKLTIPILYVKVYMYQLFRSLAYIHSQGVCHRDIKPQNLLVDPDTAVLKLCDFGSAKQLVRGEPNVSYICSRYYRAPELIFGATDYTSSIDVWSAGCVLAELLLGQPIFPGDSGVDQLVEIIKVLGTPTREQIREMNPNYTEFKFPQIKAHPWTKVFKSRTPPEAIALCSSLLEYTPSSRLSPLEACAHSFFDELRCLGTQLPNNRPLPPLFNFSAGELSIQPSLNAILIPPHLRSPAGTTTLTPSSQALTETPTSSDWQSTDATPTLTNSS
T11 sequence (P31751 whole entry): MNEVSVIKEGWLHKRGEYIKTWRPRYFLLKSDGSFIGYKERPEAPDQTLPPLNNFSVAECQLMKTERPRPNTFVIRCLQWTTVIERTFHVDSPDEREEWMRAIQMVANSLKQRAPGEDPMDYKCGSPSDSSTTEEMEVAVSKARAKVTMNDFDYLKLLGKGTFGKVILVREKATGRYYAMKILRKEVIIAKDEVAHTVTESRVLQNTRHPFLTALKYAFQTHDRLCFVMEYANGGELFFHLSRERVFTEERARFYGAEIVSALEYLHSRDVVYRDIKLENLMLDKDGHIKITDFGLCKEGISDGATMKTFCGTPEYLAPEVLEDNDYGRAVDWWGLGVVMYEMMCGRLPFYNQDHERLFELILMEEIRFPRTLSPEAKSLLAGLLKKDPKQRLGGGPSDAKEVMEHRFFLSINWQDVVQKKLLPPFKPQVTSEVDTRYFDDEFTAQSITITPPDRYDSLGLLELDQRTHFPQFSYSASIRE
T6 sequence (Q9HAZ1 whole entry): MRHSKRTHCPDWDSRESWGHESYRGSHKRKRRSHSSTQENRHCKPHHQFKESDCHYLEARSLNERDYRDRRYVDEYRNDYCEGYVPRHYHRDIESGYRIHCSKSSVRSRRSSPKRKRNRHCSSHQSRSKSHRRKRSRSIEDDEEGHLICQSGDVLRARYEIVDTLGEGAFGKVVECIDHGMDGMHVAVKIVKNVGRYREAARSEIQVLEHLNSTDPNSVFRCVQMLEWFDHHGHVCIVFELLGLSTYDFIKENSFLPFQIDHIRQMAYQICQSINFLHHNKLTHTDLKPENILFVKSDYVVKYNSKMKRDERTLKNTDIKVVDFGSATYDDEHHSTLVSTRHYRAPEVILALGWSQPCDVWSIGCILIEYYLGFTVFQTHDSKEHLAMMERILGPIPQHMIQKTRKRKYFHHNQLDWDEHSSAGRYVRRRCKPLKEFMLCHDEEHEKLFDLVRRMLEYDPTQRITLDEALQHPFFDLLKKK
T3 sequence (Q16816 whole entry): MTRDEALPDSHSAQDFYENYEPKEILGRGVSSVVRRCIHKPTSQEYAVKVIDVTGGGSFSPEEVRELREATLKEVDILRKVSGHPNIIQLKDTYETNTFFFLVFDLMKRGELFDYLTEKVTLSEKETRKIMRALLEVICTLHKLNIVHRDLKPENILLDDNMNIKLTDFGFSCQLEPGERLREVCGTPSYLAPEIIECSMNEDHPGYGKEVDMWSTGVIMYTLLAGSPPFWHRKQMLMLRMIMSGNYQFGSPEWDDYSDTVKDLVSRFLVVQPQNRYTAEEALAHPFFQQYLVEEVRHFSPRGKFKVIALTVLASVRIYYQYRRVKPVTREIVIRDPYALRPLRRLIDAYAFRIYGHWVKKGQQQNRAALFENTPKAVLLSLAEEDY
T4 sequence (O60674 whole entry): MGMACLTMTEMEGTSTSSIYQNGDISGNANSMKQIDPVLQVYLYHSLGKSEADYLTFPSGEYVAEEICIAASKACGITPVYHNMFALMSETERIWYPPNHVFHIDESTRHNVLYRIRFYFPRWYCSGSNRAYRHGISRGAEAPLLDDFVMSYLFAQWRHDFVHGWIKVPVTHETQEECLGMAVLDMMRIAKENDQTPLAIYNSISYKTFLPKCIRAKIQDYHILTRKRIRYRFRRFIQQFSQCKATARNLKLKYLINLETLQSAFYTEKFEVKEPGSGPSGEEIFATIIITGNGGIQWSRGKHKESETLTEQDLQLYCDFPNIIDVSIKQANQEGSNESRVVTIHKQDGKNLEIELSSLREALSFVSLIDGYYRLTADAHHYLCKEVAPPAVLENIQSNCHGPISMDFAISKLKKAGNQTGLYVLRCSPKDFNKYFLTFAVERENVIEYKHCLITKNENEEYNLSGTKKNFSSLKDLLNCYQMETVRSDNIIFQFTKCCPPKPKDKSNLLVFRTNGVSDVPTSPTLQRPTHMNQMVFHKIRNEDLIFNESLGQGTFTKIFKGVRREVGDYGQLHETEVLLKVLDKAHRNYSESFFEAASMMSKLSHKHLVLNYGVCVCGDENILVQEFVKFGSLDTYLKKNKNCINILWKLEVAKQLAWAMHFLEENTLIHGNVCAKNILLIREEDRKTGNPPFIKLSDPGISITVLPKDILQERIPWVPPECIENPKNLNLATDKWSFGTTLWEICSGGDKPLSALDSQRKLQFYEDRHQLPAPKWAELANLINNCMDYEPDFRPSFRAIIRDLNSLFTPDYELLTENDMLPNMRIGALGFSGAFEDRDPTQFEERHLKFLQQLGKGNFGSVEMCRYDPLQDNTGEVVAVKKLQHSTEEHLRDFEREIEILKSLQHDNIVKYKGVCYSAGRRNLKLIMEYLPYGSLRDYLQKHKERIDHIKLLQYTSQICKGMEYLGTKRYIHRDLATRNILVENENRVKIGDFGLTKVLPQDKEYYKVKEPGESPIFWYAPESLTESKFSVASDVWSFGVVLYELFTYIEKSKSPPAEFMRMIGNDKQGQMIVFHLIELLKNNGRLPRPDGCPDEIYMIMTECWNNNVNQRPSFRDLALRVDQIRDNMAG
T8 sequence (P00519 whole entry): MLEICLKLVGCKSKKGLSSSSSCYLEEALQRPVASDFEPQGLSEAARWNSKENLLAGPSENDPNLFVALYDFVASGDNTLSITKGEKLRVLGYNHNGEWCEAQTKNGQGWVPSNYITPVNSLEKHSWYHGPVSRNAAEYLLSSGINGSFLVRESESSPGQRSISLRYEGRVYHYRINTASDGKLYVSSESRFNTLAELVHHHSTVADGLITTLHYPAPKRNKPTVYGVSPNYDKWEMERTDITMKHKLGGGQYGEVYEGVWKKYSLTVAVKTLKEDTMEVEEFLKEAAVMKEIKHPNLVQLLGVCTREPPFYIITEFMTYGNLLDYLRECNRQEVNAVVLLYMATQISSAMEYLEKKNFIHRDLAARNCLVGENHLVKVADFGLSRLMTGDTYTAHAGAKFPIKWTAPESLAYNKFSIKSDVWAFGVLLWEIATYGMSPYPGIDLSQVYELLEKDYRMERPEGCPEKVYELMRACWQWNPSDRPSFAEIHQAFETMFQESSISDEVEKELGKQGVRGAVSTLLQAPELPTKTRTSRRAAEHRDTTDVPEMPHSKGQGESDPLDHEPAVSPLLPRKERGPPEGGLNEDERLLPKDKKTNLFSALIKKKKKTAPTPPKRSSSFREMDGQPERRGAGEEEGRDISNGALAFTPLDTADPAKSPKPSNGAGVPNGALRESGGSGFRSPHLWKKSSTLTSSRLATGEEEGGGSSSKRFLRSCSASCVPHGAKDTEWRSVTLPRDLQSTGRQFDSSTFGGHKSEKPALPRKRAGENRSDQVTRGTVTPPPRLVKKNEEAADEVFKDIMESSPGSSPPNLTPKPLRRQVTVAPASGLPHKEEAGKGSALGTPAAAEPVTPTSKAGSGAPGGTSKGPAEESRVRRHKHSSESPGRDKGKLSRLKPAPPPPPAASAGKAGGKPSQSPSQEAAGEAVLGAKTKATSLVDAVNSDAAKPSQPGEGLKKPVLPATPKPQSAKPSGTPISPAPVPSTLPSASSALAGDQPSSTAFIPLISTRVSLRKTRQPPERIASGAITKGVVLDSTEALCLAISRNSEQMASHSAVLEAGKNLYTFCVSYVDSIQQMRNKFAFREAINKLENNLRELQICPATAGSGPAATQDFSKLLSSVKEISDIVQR
T9 sequence (Q9Y6E0 whole entry): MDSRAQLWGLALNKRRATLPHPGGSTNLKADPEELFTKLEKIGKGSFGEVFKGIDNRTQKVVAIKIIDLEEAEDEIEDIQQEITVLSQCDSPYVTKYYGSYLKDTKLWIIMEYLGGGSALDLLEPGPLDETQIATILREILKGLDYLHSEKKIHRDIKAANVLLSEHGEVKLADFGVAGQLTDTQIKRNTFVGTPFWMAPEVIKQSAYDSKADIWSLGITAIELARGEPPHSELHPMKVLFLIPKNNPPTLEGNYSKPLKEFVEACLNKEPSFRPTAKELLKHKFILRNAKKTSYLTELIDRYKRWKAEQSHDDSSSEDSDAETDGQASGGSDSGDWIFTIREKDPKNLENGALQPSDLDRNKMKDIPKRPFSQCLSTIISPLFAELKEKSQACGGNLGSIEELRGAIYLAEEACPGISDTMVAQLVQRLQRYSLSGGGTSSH

`C=CC(=O)Nc1cccc(Nc2nc(Nc3ccc(OCCOC)c(F)c3)ncc2F)c1` [Compound 2] was tested, and the inhibition at 3 µM (GSK3a) was 24.5%, the remaining activity at 3 µM (GSK3a; [1]) was 76% and the remaining activity at 3 µM (GSK3a; [2]) was 75%. It also gave an inhibition at 3 µM (HIPK2) of 2.82%, a remaining activity at 3 µM (HIPK2; [1]) of 95.8% and a remaining activity at 3 µM (HIPK2; [2]) of 98.6%. The inhibition at 3 µM (PHKg1) was 14.5%, the remaining activity at 3 µM (PHKg1; [1]) was 85.8% and the remaining activity at 3 µM (PHKg1; [2]) was 85.2%. It also gave an inhibition at 3 µM (JAK2) of -11.6%, a remaining activity at 3 µM (JAK2; [1]) of 109% and a remaining activity at 3 µM (JAK2; [2]) of 115%. It also gave an inhibition at 3 µM (MEKK3) of -4.03%, a remaining activity at 3 µM (MEKK3; [1]) of 102% and a remaining activity at 3 µM (MEKK3; [2]) of 106%. The inhibition at 3 µM (CLK4) was 44.3%, the remaining activity at 3 µM (CLK4; [1]) was 57.4% and the remaining activity at 3 µM (CLK4; [2]) was 53.9%. The inhibition at 3 µM (CDK7/cyclin H) was 2.36%, the remaining activity at 3 µM (CDK7/cyclin H; [1]) was 98.1% and the remaining activity at 3 µM (CDK7/cyclin H; [2]) was 97.2%. It also gave an inhibition at 3 µM (ABL1) of 54.7%, a remaining activity at 3 µM (ABL1; [1]) of 45.4% and a remaining activity at 3 µM (ABL1; [2]) of 45.2%. It also gave an inhibition at 3 µM (MST3/STK24) of 14.5%, a remaining activity at 3 µM (MST3/STK24; [1]) of 86.6% and a remaining activity at 3 µM (MST3/STK24; [2]) of 84.5%. For the same compound, the inhibition at 3 µM (SNARK/NUAK2) was 15.7%, the remaining activity at 3 µM (SNARK/NUAK2; [1]) was 83.7% and the remaining activity at 3 µM (SNARK/NUAK2; [2]) was 84.9%. For the same compound, the inhibition at 3 µM (AKT2) was 4.23%, the remaining activity at 3 µM (AKT2; [1]) was 93.7% and the remaining activity at 3 µM (AKT2; [2]) was 97.9%.
